Reference: patent US7410975B2, “Small molecule toll-like receptor (TLR) antagonists” (Coley Pharmaceutical Group, Inc., priority 2003, dated 2008)
Counter-ions that a name gives are not always drawn.

biological target: T1, human TLR8 (hTLR8) (Homo sapiens, UniProt Q9NR97); assay: Antagonist screen, hTLR8-NFκB-293 cells, NF-κB-luciferase reporter, with EC50 of R848; type: cell-based; details: compound at 0.5, 5, 50 μg/ml; EC50 concentration of R848; 16 h; NF-κB-luciferase
T1 construct: expressed in transfected cells
T1 sequence (Q9NR97 27-1041): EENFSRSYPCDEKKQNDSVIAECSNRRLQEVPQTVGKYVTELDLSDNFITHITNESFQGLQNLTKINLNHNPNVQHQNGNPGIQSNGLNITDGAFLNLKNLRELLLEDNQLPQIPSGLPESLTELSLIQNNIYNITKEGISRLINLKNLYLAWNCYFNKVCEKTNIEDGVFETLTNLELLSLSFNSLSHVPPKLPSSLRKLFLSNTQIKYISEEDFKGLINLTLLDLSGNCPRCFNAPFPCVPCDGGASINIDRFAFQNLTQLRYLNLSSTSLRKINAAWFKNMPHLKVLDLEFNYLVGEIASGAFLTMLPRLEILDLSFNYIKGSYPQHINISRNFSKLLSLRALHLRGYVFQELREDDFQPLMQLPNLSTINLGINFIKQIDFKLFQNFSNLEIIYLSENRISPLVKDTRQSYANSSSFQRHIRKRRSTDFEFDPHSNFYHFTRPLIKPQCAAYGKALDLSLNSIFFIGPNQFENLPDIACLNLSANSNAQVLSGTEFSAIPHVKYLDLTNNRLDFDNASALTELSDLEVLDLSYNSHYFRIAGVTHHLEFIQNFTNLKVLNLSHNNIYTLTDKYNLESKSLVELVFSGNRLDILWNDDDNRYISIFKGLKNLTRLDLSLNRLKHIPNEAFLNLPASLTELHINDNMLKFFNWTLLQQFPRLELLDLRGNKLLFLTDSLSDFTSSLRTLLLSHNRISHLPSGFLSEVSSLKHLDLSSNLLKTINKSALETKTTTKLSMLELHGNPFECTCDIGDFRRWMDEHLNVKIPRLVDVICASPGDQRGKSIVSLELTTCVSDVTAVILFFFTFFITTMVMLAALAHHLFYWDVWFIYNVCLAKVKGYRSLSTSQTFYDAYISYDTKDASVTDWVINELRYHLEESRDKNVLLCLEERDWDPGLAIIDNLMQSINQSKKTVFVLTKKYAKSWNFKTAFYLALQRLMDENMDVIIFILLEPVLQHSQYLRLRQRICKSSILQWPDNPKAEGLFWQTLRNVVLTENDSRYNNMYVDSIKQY

SMILES	hTLR8 (inhibitory effect, antagonist score)
COc1cc2nc(N3CCN(C(=O)C4COc5ccccc5O4)CC3)nc(N)c2cc1OC.CS(=O)(=O)O (stereo not drawn) [compound 858, Doxazosin mesylate]	— (compounds for which there was no clear down regulation even at 50 μg/ml)
COc1cc2nc(N3CCN(C(=O)C4CCCO4)CC3)nc(N)c2cc1OC.Cl (stereo not drawn) [compound 751, Terazosin hydrochloride]	— (compounds for which there was no clear down regulation even at 50 μg/ml)
CN(C)C(=O)C(CCN1CCC(O)(c2ccc(Cl)cc2)CC1)(c1ccccc1)c1ccccc1 [compound 144, Loperamidehydrochloride]	11 (compounds for which there was clear down regulation only at 50 μg/ml)
CC(C)(C)c1ccc(C(O)CCCN2CCC(C(O)(c3ccccc3)c3ccccc3)CC2)cc1 (stereo not drawn) [compound 138, Terfenadine]	11 (compounds for which there was clear down regulation only at 50 μg/ml)
COc1cc2c(cc1O)C[C@H]1c3c(cc(O)c(OC)c3-2)CCN1C [compound 600, Boldine]	— (compounds for which there was no clear down regulation even at 50 μg/ml)
CN1CCc2cc3c(c4c2C1Cc1ccccc1-4)OCO3.Cl (stereo not drawn) [compound 669, Remerine hydrochloride]	— (compounds for which there was no clear down regulation even at 50 μg/ml)
CCN(CC)CCCC(C)Nc1nc(/C=C/c2ccc(Cl)cc2)nc2cc3ccccc3cc12 (stereo not drawn) [compound 2000]	11 (compounds for which there was clear down regulation only at 50 μg/ml)
CN1CCc2cccc3c2[C@H]1Cc1ccc(O)c(O)c1-3.Cl [compound 101, Apomorphinehydrochloride (R, —)]	11 (compounds for which there was clear down regulation only at 50 μg/ml)

same assay, conditions: hTLR8-NFκB-293 cells, with EC50 of R848; compound at 0.5, 5 and 50 μg/ml

SMILES	hTLR8 (inhibitory effect)
CN1CCc2c1nc1ccccc1c2NC(=O)CN1CCCCCC1 [compound 1003]	— (compounds for which there was no clear down regulation even at 50 μg/ml)
Nc1c2c(nc3ccccc13)N(Cc1ccccc1)CC2 [compound 1217, 1-Benzyl-2,3-dihydro-1H-pyrrolo[2,3-b]quinolin-4-ylamine]	11 (compounds for which there was clear down regulation only at 50 μg/ml)
CCCCCCN(CCCCCC)CC(=O)Nc1c2c(nc3ccccc13)N(C)CC2 [compound 1224]	12 (compounds for which there was clear down regulation at 5 μg/ml and 50 μg/ml)
O=c1c2c(nc(NCCO)n1-c1ccccc1)-c1ccccc1CC21CCCC1 [compound 891]	— (compounds for which there was no clear down regulation even at 50 μg/ml)
CCCCCCCCCCCC(=O)Nc1c2c(nc3ccccc13)N(C)CC2 [compound 1334]	— (compounds for which there was no clear down regulation even at 50 μg/ml)
COc1cc2cc3c4cc(OC)c(OC)cc4cc[n+]3c(C)c2cc1OC [compound 431, Coralyne chloridehydrate]	— (compounds for which there was no clear down regulation even at 50 μg/ml)
O=C1c2ccc(Oc3ccc(S(=O)(=O)c4ccc(Oc5ccc6c(c5)C(=O)N(c5ccccn5)C6=O)cc4)cc3)cc2C(=O)N1c1ccccn1 [compound 1367]	11 (compounds for which there was clear down regulation only at 50 μg/ml)
CN1CCc2c1nc1ccc(Br)cc1c2N [compound 1142, 6-Bromo-1-methyl-2,3-dihydro-1H-pyrrolo[2,3-b]quinolin-4-ylamine]	11 (compounds for which there was clear down regulation only at 50 μg/ml)
CN(C)CCN(Cc1ccc(Cl)cc1)c1ccccn1.Cl [compound 807, Chloro-pyraminehydrochloride]	— (compounds for which there was no clear down regulation even at 50 μg/ml)
CCOc1ccc(Cc2nccc3cc(OCC)c(OCC)cc23)cc1OCC.Cl [compound 830, Ethaverinehydrochloride]	11 (compounds for which there was clear down regulation only at 50 μg/ml)
Cc1ccc(-n2c(NCCO)nc3c(c2=O)C2(CCCCC2)Cc2ccccc2-3)cc1 [compound 1137]	11 (compounds for which there was clear down regulation only at 50 μg/ml)
CC[N+](C)(CC)CCC[n+]1c(-c2ccccc2)c2cc(N)ccc2c2ccc(N)cc21.[I-].[I-] [compound 792, Propidium iodide]	— (compounds for which there was no clear down regulation even at 50 μg/ml)
O=C1c2ccc(S(=O)(=O)c3ccc4c(c3)C(=O)N(c3ccccn3)C4=O)cc2C(=O)N1c1ccccn1 [compound 1163]	11 (compounds for which there was clear down regulation only at 50 μg/ml)
CN1CCc2c1nc1ccccc1c2NC(=O)CN1CCN(c2ccccc2)CC1 [compound 1212]	— (compounds for which there was no clear down regulation even at 50 μg/ml)
Cc1ccc2nc3c(c(N)c2c1)CCN3C [compound 1091, 1,6-Dimethyl-2,3-dihydro-1H-pyrrolo[2,3-b]quinolin-4-ylamine]	11 (compounds for which there was clear down regulation only at 50 μg/ml)
CN1CCCCc2c1nc1ccccc1c2N [compound 1185, 1-Methyl-2,3,4,5-tetrahydro-1H-azepino[2,3-b]quinolin-6-ylamine]	— (compounds for which there was no clear down regulation even at 50 μg/ml)
NNc1nc2c(c(=O)n1-c1ccccc1)C1(CCCC1)Cc1ccccc1-2 [compound 1320]	— (compounds for which there was no clear down regulation even at 50 μg/ml)
O=c1c2c(nc(NCCO)n1Cc1ccccc1)-c1ccccc1CC21CCCC1 [compound 926]	11 (compounds for which there was clear down regulation only at 50 μg/ml)
NNc1nc2c(c(=O)n1C1CCCC1)C1(CCCC1)Cc1ccccc1-2 [compound 1248]	11 (compounds for which there was clear down regulation only at 50 μg/ml)
O=C(CN1CCCC1)Nc1c2c(nc3ccccc13)N(c1ccccc1)CC2 [compound 1244]	11 (compounds for which there was clear down regulation only at 50 μg/ml)
CN1CCc2c1nc1ccccc1c2N [compound 990, 1-Methyl-2,3-dihydro-1H-pyrrolo[2,3-b]quinolin-4-ylamine]	— (compounds for which there was no clear down regulation even at 50 μg/ml)
COc1ccc2cc3[n+](cc2c1OC)CCc1cc2c(cc1-3)OCO2.[Cl-] [compound 586, Berberine chloride]	12 (compounds for which there was clear down regulation at 5 μg/ml and 50 μg/ml)
O=c1[nH]c(NCCO)nc2c1C1(CCCC1)Cc1ccccc1-2 [compound 1322]	— (compounds for which there was no clear down regulation even at 50 μg/ml)
Cn1c(NN)nc2c(c1=O)C1(CCCC1)Cc1ccccc1-2 [compound 1213]	— (compounds for which there was no clear down regulation even at 50 μg/ml)
COc1ccc(Cc2nccc3cc(OC)c(OC)cc23)cc1OC.Cl [compound 583, Papaverinehydrochloride]	— (compounds for which there was no clear down regulation even at 50 μg/ml)
